Consider one molecule from patent US20090047704A1, “Combination of a Histological or Cytological Fixing Agent and One or More Photoactivatable Compounds of the Quinone Family, In Particular Hypericin, Hypocrellin A and Hypocrellin B” (NOVACYT, priority 2005, published 2009).

SMILES strings stand for the structures. “Also recorded” adds a separate entry of the source.

Assay type in all cases: cell-based
Experiment [1] deals with Human glioblastoma cells. The experiment in a line: Microspectrofluorometer comparison of hypericin fluorescence in living versus fixed glioblastoma cells. As to conditions: 2 micromoles per ml hypericin in Sakomano cytological fixing agent, one hour. How it is done: Human glioblastoma cells are cultivated in a petri dish. Hypericin is placed in suspension in a solution of Sakomano cytological fixing agent, with a concentration of 2 micromoles per ml, four hours before the experiments. The fixing agent solution comprising hypericin is shielded from light. The cells of the glioblastoma are directly fixed by placing them in the solution of fixing agent prepared based on hypericin for one hour. Comparative tests are carried out using a microspectrofluorometer in order to compare the level of intensity of fluorescence and the quality of the fluorescence spectrum measured in cultures of identical living glioblastoma cells, incubated at the same concentration for one hour in the solution of Sakomano cytological fixing agent containing hypericin, and the fixed cells.

Experiment [2] has as its system tumorous HeLa cells. The experiment can be described thus: Microspectrofluorometer measurement of hypericin marking in a fixed mixed cell suspension, tumorous cells. The following applies: Sakomano fixing agent, 2 μm/ml, one hour, shielded from light. The source says: (§1) Cells from a line of epidermoid malphigian carcinoma of the cervix, of the type HeLa, are cultivated in a petri dish. They are then fixed in a cytological fixing agent of the Sakomano type which already includes normal epithelial cells from a cervical smear in order to verify the affinity of hypericin for the tumorous cells in a cell suspension containing several types of normal cells and tumorous cells. Hypericin is then placed in suspension for one hour in the cell suspension fixed at a concentration of 2 μm/ml and shielded from light. Tests are carried out using a microspectrofluorometer in order to compare the level of intensity of fluorescence and the quality of the fluorescence spectrum measured for the different cells of the suspension, incubated at the same concentration for one hour in the solution of Sakomano cytological fixing agent containing hypericin.

In experiment [3] the test system is normal epithelial cells from a cervical smear. The experiment can be described thus: Microspectrofluorometer measurement of hypericin marking in a fixed mixed cell suspension, normal cells. The following applies: Sakomano fixing agent, 2 μm/ml, one hour, shielded from light.
Text: as §1

Experiment [4] concerns tumorous cells. The experiment in a line: Incorporation of hypericin by tumorous cells suspended in fixing agent solution. The following applies: tumorous cells in suspension in fixing agent solution containing micromolar measures of hypericin. The source says: Since the liquid phase of the cell suspension practically no longer contains hypericin, it is possible to carry out a direct analysis of the cells (morphological and/or fluorescence emission analysis) without rinsing the cell suspension. This property therefore allows the cell/tissue preparation and the analysis of the cells to be automated.

As to `Cc1cc(O)c2c(=O)c3c(O)cc(O)c4c5c(O)cc(O)c6c(=O)c7c(O)cc(C)c8c1c2c(c34)c(c78)c65` [hypericin, 1,3,4,6,8,13-hexahydroxy-10,11-dimethylphenanthro(1,10,9,8,opqra)perylene-7,14-dione], in experiment [1], the “fluorescence spectrums, living cells versus fixed cells” value is “can be completely superimposed” and the “levels of intensity of the fluorescence, living cells versus fixed cells” value is recorded as “identical”. For the same molecule, in experiment [2], the “affinity of hypericin for tumorous cells” value is recorded as “great affinity” and the “localisation of hypericin in tumorous cells” value is reported as “preferential perinuclear localisation; also recorded: very specific preferential perinuclear localisation”. For the same molecule, in experiment [3], the “affinity of hypericin for normal cells” value is “very low level of affinity; also recorded: low level of affinity” and the “localisation of hypericin in normal cells” value is given as “peripheral localisation in the region of the cell membrane”. The “incorporation of hypericin by the cells” value in experiment [4] was “almost all of the hypericin is incorporated by the cells”.
